Data taken from publication PMC11077991, “The small molecule CBR-5884 inhibits the Candida albicans phosphatidylserine synthase” (mBio, 2024).

Columns and labels:
[1] = system: cancer cell lines with high serine biosynthetic activity (melanoma and breast cancer lines); design: method as in PMID 26831078; details: cited from earlier work
purified hexameric Cho1 = purified hexameric Cho1 (Candida albicans, UniProt A0A1D8PF32); test: kinetic curves of purified hexameric Cho1 (radioactive PS synthase assay); format: biochemical
Sequence of purified hexameric Cho1 (A0A1D8PF32 entry or part of it): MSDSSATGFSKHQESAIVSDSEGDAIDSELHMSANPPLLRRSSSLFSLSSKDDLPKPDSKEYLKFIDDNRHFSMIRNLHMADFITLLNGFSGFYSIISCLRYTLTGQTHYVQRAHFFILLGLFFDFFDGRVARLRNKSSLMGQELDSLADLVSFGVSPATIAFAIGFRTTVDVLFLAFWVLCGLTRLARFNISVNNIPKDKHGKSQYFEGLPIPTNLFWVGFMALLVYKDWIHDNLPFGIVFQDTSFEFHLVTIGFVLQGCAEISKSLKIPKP
Method: For the kinetic curves, the specific activity was measured in the reaction containing 50 mM Tris-HCl (pH 8.0), 1 mM MnCl2, 0.025%–0.3% Triton X-100 and 0.033%–0.07% digitonin with 0.75–1.5 µg purified Cho1 protein. The concentrations of 18:1 CDP-DAG (Avanti, cat# 870520) and serine are indicated in the graphs, and the mol % of CDP-DAG was kept between 4.2% and 5.0% for the curve where CDP-DAG was varied (Fig. 6C and D) and at 4.8% (200 μM) for the curve where serine was varied (Fig. 6B). The concentrations of CBR-5884 used in each reaction are indicated in the graph, and CBR-5884 was incubated with purified Cho1 protein in the presence of CDP-DAG on ice for at least 2 h before the addition of L-[^3H]-serine. The reaction was stopped at 20, 40, and 60 min, and specific activity was calculated based on the slope of linear PS production, representing the initial velocity.

[2] = precipitation in MIC media; format: physicochemical

In the case of CCOC(=O)c1sc(NC(=O)c2ccco2)c(SC#N)c1C [CBR-5884], the “toxicity to cancer cell lines” value [1] is given as “selectively toxic”, the Ki (purified hexameric Cho1) is given as 1550 nM and the “inhibition of Cho1 activity at sub-saturating serine” value (purified hexameric Cho1; serine 20 mM, CDP-DAG 25-300 µM) is given as “observed”. For the same compound, the “inhibition of Cho1 activity at saturating serine” value (purified hexameric Cho1; serine 32 mM, CDP-DAG varied) was “inhibition was overcome”, the pattern of inhibition (purified hexameric Cho1; serine varied, CDP-DAG 200 µM) was “competitive inhibition” and the “solubility in MIC media” value [2] was “precipitated at high concentrations”.
